Patent publication US20190127456A1, “METHODS OF TREATING IDIOPATHIC PULMONARY FIBROSIS” (FibroGen, Inc., priority 2017, published 2019)

Key:
IPF = test: Phase two study in IPF patients: St. George's Respiratory Questionnaire (SGRQ); type: in vivo, human; settings: 48 weeks treatment, compared with placebo, FIGS. 5A-5D
Description: (§1) A double-blind, placebo-controlled Phase two study was conducted in which 103 patients, randomized (1:1) to receive pamrevlumab or placebo, were treated for 48 weeks. Patients' self-administered the Saint George's Respiratory Questionnaire (SGRQ) to assess changes in health-related quality of life parameters over the course of the study. This questionnaire was developed for patients with chronic airflow limitation and the results correlate well with established measures of symptom level, disease activity and disability. Patients completed the SGRQ on Day 1 (baseline) and every 12 weeks thereafter during the 48-week treatment period. The SGRQ comprises three domains (symptoms, activity, and impact) with the score for each domain ranging from 0 to 100, with higher scores indicating worse health-related quality of life (Jones P W, et al. Respir Med 1991; 85:Suppl B:25-31; Barr J T et al. Clin Ther 2000; 22:1121-45).

[1] = test system: radiation-induced lung fibrosis; test: Mouse radiation-induced lung fibrosis model: lung volume by HRCT; type: in vivo; settings: 14.5 Gy irradiated mice, treated 8 weeks from week 16, measured at 24 weeks; FIG. 4
Description: (§2) The objective of this study was to compare the activity of pamrevlumab monotherapy to either pirfenidone or nintedanib alone, and to evaluate the potential for enhanced activity of the combined agents. […] In this study, mice received thoracic irradiation (RT), followed by the therapeutic administration of the agents at 16 weeks post-irradiation when lung remodeling was evident by HRCT. After 8 weeks of drug treatment, lung density and volume were assessed by HRCT, lung function was assessed by blood gas analysis, and mice were sacrificed for histologic and gene expression analysis. C57B1/6 mice were irradiated with 14.5 Gy photons; full thorax, single dose. Treatment with therapeutic agent(s) (pamrevlumab, pirfenidone, and/or nintedanib) was initiated 16 weeks post-irradiation and continued for 8 weeks. Pamrevlumab (FG) was given IP, BIW, at 40 mg/kg; pirfenidone (PF) was given PO in chow, QD, at 300 mg/kg; nintedanib (ND) was given PO in chow, QD, at 100 mg/kg. Treatment with each agent alone, with combinations of two, and with a triple combination were carried out. Controls included non-irradiated mice, mice that were irradiated and not treated, and mice that were irradiated and given human IgG. Endpoint measurements were taken at 24 weeks for HRCT (lung structure), blood gas analysis (lung function), histology and gene expression analysis. […]

[2] = test system: fibrosis genes in irradiated lung; test: Microarray analysis of mRNA transcripts in irradiated lung; type: in vivo, mouse
Description: C57B1/6 mice were irradiated with 14.5 Gy photons; full thorax, single dose. Treatment with therapeutic agent(s) (pamrevlumab, pirfenidone, and/or nintedanib) was initiated 16 weeks post-irradiation and continued for 8 weeks. Pamrevlumab (FG) was given IP, BIW, at 40 mg/kg; pirfenidone (PF) was given PO in chow, QD, at 300 mg/kg; nintedanib (ND) was given PO in chow, QD, at 100 mg/kg. Treatment with each agent alone, with combinations of two, and with a triple combination were carried out. Controls included non-irradiated mice, mice that were irradiated and not treated, and mice that were irradiated and given human IgG. Endpoint measurements were taken at 24 weeks for HRCT (lung structure), blood gas analysis (lung function), histology and gene expression analysis.
Microarray analysis of mRNA transcripts of numerous genes at 24 weeks after RT were carried out by standard techniques to compare the expression profiles of irradiated and treated animals to irradiated animals that were not further treated. The results of the later group, RT (control), were used to normalize the expression data from the other groups. Briefly, RNA from 4-7 animals per condition (RT (control), RT+hIgG, RT+FG, RT+ND, RT+PF, RT+FG+ND, RT+FG+PF, RT+ND+PF, RT+FG+ND+PF). Affymetrix 430 2.0 data was used. RT induced changes (≥1.5×, p<0.05) were filtered for treatment dependent correction (>50% correction, p<0.05). 80 RT-induced and 68 RT-suppressed transcripts were normalized at least 50% by one or more treatments. The resulting list was dominated by pamrevlumab-dependent normalization. Functional analysis indicated pamrevlumab treatment preferentially normalized RT genes known to be regulated by TGFβ and TNF.

[3] = Phase two study in IPF patients: treatment emergent adverse events; type: in vivo, human; settings: Phase two trial, 48 weeks
Description: as §1
Patients in the Phase two clinical trial described above in Example 2 were monitored for the occurrence of treatment emergent adverse events. The percentage of patients treated with an anti-CTGF antibody (pamrevlumab) that experienced diarrhea was 16.0% compared to 7.5% for placebo treated patients. The percentage of patients treated with pamrevlumab that experienced nausea was 14.0% compared to 13.2% for placebo treated patients. […]

[4] = test system: radiation-induced lung fibrosis; test: Mouse radiation-induced lung fibrosis model: lung density by HRCT; type: in vivo; settings: 14.5 Gy irradiated mice, treated 8 weeks from week 16, measured at 24 weeks; FIG. 2
Description: as §2

[5] = irradiated mouse lung, 24 weeks after RT, 8 weeks treatment, RT fold change 0.4

## pamrevlumab
IPF
  SGRQ all domains (symptoms, activity, impact) and total score, change from baseline: improvement (lower values)
[1]
  radiation-induced lung volume decrease: significantly inhibited radiation-induced lung volume decrease from baseline
[2]; irradiated mouse lung, 24 weeks after RT, 8 weeks treatment, RT fold change 0.3
  % Normalization of gene expression, Igfbp5: 70%
[2]; [5]
  % Normalization of gene expression, Abca3: 75%
  % Normalization of gene expression, Gdf2: 68%
[2]; irradiated mouse lung, 24 weeks after RT, 8 weeks treatment, RT fold change 0.5
  % Normalization of gene expression, Cx3cl1: 57%
[2]; irradiated mouse lung, 24 weeks after RT, 8 weeks treatment, RT fold change 2.0
  % Normalization of gene expression, Retnla: 43%
[2]; irradiated mouse lung, 24 weeks after RT, 8 weeks treatment, RT fold change 2.1
  % Normalization of gene expression, Nt5e: 53%
[2]; irradiated mouse lung, 24 weeks after RT, 8 weeks treatment, RT fold change 2.2
  % Normalization of gene expression, Plat: 51%
[2]; irradiated mouse lung, 24 weeks after RT, 8 weeks treatment, RT fold change 2.4
  % Normalization of gene expression, Ccr2: 37%
[2]; irradiated mouse lung, 24 weeks after RT, 8 weeks treatment, RT fold change 2.6
  % Normalization of gene expression, Igfbp7: 50%
[2]; irradiated mouse lung, 24 weeks after RT, 8 weeks treatment, RT fold change 2.7
  % Normalization of gene expression, Cdkn2a: 35%
[2]; irradiated mouse lung, 24 weeks after RT, 8 weeks treatment, RT fold change 5.3
  % Normalization of gene expression, Apln: 59%
[2]; irradiated mouse lung, 24 weeks after RT, 8 weeks treatment, RT fold change 6.9
  % Normalization of gene expression, Wisp1: 52%
[2]; irradiated mouse lung, 24 weeks after RT, 8 weeks treatment, RT fold change 11.9
  % Normalization of gene expression, Wisp1: 54%
[2]; microarray at 24 weeks after RT, monotherapies compared
  normalization of fibrosis-related transcripts: normalized more fibrosis-related transcripts than other monotherapies
[3]; placebo 7.5%
  percentage of patients that experienced diarrhea: 16.0%
[3]; placebo 13.2%
  percentage of patients that experienced nausea: 14.0%
[4]
  radiation-induced increase in lung density (Hounsfield Units): significantly inhibited the increase in radiation-induced lung density from baseline
